# Laboratory results as given in patent US20070043062A1, “Isoxazoles as peptide deformylase inhibitors” (Arpida A/S, priority 2003, published 2007).
# How the values were obtained:
# S. aureus, PDF enzyme = target: T1, S. aureus, PDF enzyme (Staphylococcus aureus, UniProt P68826); assay: Bacterial peptide deformylase (PDF) assay, colorimetric cell free, f-Met-Ala substrate, TNBS detection at 420 nm; format: biochemical; settings: means of three experiments; 30 minutes at room temperature, pH 7.2; read-out: PDF enzyme inhibitory activity IC50, S. aureus, PDF enzyme
# T1 sequence (P68826 1-183): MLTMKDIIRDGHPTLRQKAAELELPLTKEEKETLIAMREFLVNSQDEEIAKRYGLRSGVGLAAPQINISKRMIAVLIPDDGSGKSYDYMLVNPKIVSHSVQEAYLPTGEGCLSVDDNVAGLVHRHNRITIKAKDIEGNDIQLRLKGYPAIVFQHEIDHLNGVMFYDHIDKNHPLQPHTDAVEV
# Text: To find inhibitors of Peptide Deformylase (PDF), a colorimetric cell free assay for measuring the enzymatic activity of PDF has been adapted to the microtiter plate format (96 wells). The assay comprises three components, purified PDF, f-Met-Ala as substrate and TNBS as the detecting agent of primary amino groups. The resulting TNP-NH-Met-Ala sulfite complex can be detected at 420 nm. PDF enzymes, containing Fe^2+ as the native metal, are purified and are stabilized by the addition of tris(2-carboxyethyl)phosphine (TCEP).
# (§1) The IC50 value of a compound of the invention as a bacterial PDF inhibitor was determined using the following assay.
# (§2) Assay buffer: 0.1M MOPS pH was adjusted to 7.2 with NaOH, containing 0.25 M NaCl, 100 μg/mL catalase and 1 mg/mL BSA.
# S. aureus (15 mg/ml) 10 μl+990 μl Assay buffer, 0.3 μl per ml enzyme mix.
# (§3) Substrate mix: 10 mM f-Met-Ala was made up from 200 mM f-Met-Ala in methanol with assay buffer.
# (§4) TNBS solution: Freshly dilute 1 M TNBS stock solution diluted 1:10 with water.
# (§5) Buffer C, 0.5 M borate buffer adjusted to pH 9.5 with NaOH.
# (§6) Buffer D: 0.2 ml of freshly prepared 0.5 M Na2SO3 was mixed with 9.8 mL of 0.5M NaH2PO4.
# (§7) Inhibitor solution: 2 mM Sodium 4-(hydroxymercurio) benzoate in assay buffer.
# (§8) Compound mix: Compound of formula I dissolved in DMSO in a 10 mg/mL stock solution. Further dilutions were made in DMSO in the concentration range between 0.05 to 100 mM.
# The assay was performed in a 96 Microtiter plate containing test compound. To each well containing test compound mix was added 75 microliter of enzyme mix followed by the addition of 25 microliter of substrate mix. The resulting mix was incubated for 30 minutes at room temperature with shaking. TNBS solution (50 microliter/well) was added and the resulting mixture was incubated for 15 minutes under shaking. Buffer C was then added (20 microliter/well). After incubating at room temperature for 15 minutes under shaking, buffer D was added (50 microliter/well). The optical […] was then measured at 420 nm, thereby determining the IC50 value.
# E. coli, PDF enzyme = E. coli, PDF enzyme (Escherichia coli, UniProt P0A6K3); assay: as above; format: biochemical
# Sequence of E. coli, PDF enzyme (P0A6K3 whole entry): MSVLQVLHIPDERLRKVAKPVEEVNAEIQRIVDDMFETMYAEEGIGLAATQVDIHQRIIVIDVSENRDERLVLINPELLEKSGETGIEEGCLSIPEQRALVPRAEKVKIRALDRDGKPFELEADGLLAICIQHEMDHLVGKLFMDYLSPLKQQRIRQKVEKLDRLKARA
# Protocol: The assay comprises three components, purified PDF, f-Met-Ala as substrate and TNBS as the detecting agent of primary amino groups. The resulting TNP-NH-Met-Ala sulfite complex can be detected at 420 nm. PDF enzymes, containing Fe^2+ as the native metal, are purified and are stabilized by the addition of tris(2-carboxyethyl)phosphine (TCEP).
# as §1, §2
# E. coli enzyme (2.5 mg/ml) 10 μl+290 μl Assay buffer, 1 μl per ml enzyme mix.
# as §3, §4, §5, §6, §7, §8
# The assay was performed in a 96 Microtiter plate containing test compound. […] The optical diffraction was then measured at 420 nm, thereby determining the IC50 value.
SMILES,melting point,"IC50 (S. aureus, PDF enzyme) [µM]","IC50 (E. coli, PDF enzyme) [µM]"
"O=C(NO)c1cc(CSc2ccccc2C(F)(F)F)on1 [Example 14, 5-(2-Trifluoromethyl-phenylsulfanylmethyl)-isoxazole-3-carboxylic acid hydroxyamide]",140 to 144 °C (dec.),9.3,
O=C(NO)c1cc(CSc2ccccc2OC(F)(F)F)on1,108 to 109 °C (dec.),,
"Cc1ccc([S+]([O-])Cc2cc(C(=O)NO)no2)cc1 (stereo not shown) [Example 38, 5-(4-Toluenesulfinylmethyl)-isoxazole-3-carboxylic acid hydroxyamide]",,0.9,
CC(c1cc(C(=O)NO)no1)S(=O)(=O)c1ccc(Cl)cc1 (stereo not shown),162 °C (dec.),,
"O=C(NO)c1cc(CS(=O)(=O)c2cccc(Cl)c2)on1 [Example 35, 5-(3-Chloro-benzenesulfonylmethyl)-isoxazole-3-carboxylic acid hydroxyamide]",,1.7,
O=C(NO)c1cc(CSc2nccc(-c3cccs3)n2)on1,165 to 168 °C (dec.),,
"O=C(NO)c1cc(CSc2cccc(Cl)c2)on1 [Example 3, 5-(3-Chloro-phenylsulfanylmethyl)-isoxazole-3-carboxylic acid hydroxyamide]",105 to 107 °C (dec.),2.3,
"O=C(NO)c1cc(CSc2ccc(C(F)(F)F)cc2)on1 [Example 13, 5-(4-Trifluoromethyl-phenylsulfanylmethyl)-isoxazole-3-carboxylic acid hydroxyamide]",129 °C,8.7,
"O=C(NO)c1cc(CS(=O)(=O)c2ccc(Cl)cc2)on1 [Example 34, 5-(4-Chloro-benzenesulfonylmethyl)-isoxazole-3-carboxylic acid hydroxyamide]",,0.8,
"CC(C)c1ccccc1S(=O)(=O)Cc1cc(C(=O)NO)no1 [Example 36, 5-(2-Isopropyl-benzenesulfonylmethyl)-isoxazole-3-carboxylic acid hydroxyamide]",170 °C (dec.),3.4,
"Cc1ccc(S(=O)(=O)Cc2cc(C(=O)NO)no2)cc1 [Example 33, 5-(4-Toluenesulfonylmethyl)-isoxazole-3-carboxylic acid hydroxyamide]",,1.4,11.5
"O=C(NO)c1cc(CSc2ccccc2Cl)on1 [Example 4, 5-(2-Chloro-phenylsulfanylmethyl)-isoxazole-3-carboxylic acid hydroxyamide]",141 to 143 °C (dec.),3.8,
"O=C(NO)c1cc(CSCc2cccc(C(F)(F)F)c2)on1 [Example 17, 5-(3-Trifluoromethyl-benzylsulfanylmethyl)-isoxazole-3-carboxylic acid hydroxyamide]",109 to 110 °C,2.2,
"COc1cccc(SCc2cc(C(=O)NO)no2)c1 [Example 11, 5-(3-Methoxy-phenylsulfanylmethyl)-isoxazole-3-carboxylic acid hydroxyamide]",116 °C,2.2,
"COc1cccc(S(=O)(=O)Cc2cc(C(=O)NO)no2)c1 [Example 37, 5-(3-Methoxy-benzenesulfonylmethyl)-isoxazole-3-carboxylic acid hydroxyamide]",,6.5,
"O=C(NO)c1cc(CSc2ccccc2Br)on1 [Example 6, 5-(2-Bromo-phenylsulfanylmethyl)-isoxazole-3-carboxylic acid hydroxyamide]",135 to 136 °C (dec.),4.9,
"O=C(NO)c1cc(CSc2cccc(Br)c2)on1 [Example 7, 5-(3-Bromo-phenylsulfanylmethyl)-isoxazole-3-carboxylic acid hydroxyamide]",104 to 105 °C,2,
"Cc1cc(C)c(SCc2cc(C(=O)NO)no2)c(C)c1 [Example 9, 5-(2,4,6-Trimethyl-phenylsulfanylmethyl)-isoxazole-3-carboxylic acid hydroxyamide]",133 to 135 °C (dec.),37.7,
"O=C(NO)c1cc(CSc2ccc(Cl)c(Cl)c2)on1 [Example 5, 5-(3,4-Dichloro-phenylsulfanylmethyl)-isoxazole-3-carboxylic acid hydroxyamide]",99 to 102 °C (dec.),2,
"Cc1ccc(SCc2cc(C(=O)NO)no2)cc1 [Example 1, 5-(4-Toluenesulfanylmethyl)-isoxazole-3-carboxylic acid hydroxyamide]",94 to 96 °C (dec.),4,
"O=C(NO)c1cc(CSCc2cc3ccccc3s2)on1 [Example 16, 5-(Benzothiophen-2-ylmethylsulfanylmethyl)-isoxazole-3-carboxylic acid hydroxyamide]",143 to 145 °C (dec.),12.7,
"CC(C)c1ccccc1SCc1cc(C(=O)NO)no1 [Example 8, 5-(2-Isopropyl-phenylsulfanylmethyl)-isoxazole-3-carboxylic acid hydroxyamide]",121 to 123 °C (dec.),7.6,
"O=C(NO)c1cc(CSc2ccc(F)cc2)on1 [Example 12, 5-(4-Fluoro-phenylsulfanylmethyl)-isoxazole-3-carboxylic acid hydroxyamide]",98 to 99 °C (dec.),1.5,
"O=C(NO)c1cc(CSc2ccc(Cl)cc2)on1 [Example 2, 5-(4-Chloro-phenylsulfanylmethyl)-isoxazole-3-carboxylic acid hydroxyamide]",,1.3,
